“And” between values parts separate entries of the source, which are not always exact repeats. Equal entries are not always repeated.
Assays:
pig skin = assay: Pig skin studies, topical radioprotector cream; format: in vivo; conditions: cream 0.15 g/field
Excerpt: The pig skin model is described by J. W. Hopewell^4. The structural similarities between human and pig skin underlie the relevance of the model.
Although some pig skin studies involve external beam irradiation, a particularly convenient radiation source is discs containing β-emitting isotopes, typically ^90Sr. The sources can be held to the skin, or for higher doses, taped to the animal, for appropriate periods of time to deliver the required dose. The discs are typically about 2 cm in diameter so that an array of different doses can be arranged on the flanks of a single animal.
The “acute” reactions (3-9 weeks after irradiation) result from radiation damage to the basal cells of the epidermis, and are manifest as erythema, and dry and moist desquamation. The “late” reactions (10-16 weeks) results from radiation effects to the dermal vascular connective tissue, characterized by a dusky mauve erythema and necrosis. The scoring system is well described.
The radioprotectors were formulated in a propylene glycol cream containing 10% DMSO. The extent and kinetics of penetration were followed by fluorescence microscopy of frozen skin sections, to enable optimization of delivery.
Radiation dose response curves were constructed for radiation only fields. The results of fields with radioprotector creams are shown in Table 3 below, with the respective cream (vehicle) only controls. The decrease in extent of skin reaction for the test fields is evident.

V79 cells [1] = assay: Cytotoxicity, clonogenic survival of V79 cells without irradiation
Protocol: (§1) Monolayers of V79 cells were maintained in 25 cm^2 Falcon plastic flasks in alpha-MEM medium with 10% foetal calf serum (FCS). Log phase cultures were treated by adding the required amount of Hoechst 33258, Hoechst 33342 or para dimethylamino Hoechst (25-500 nmoles) dissolved in 50 μL 10 μM acetic acid in 50% methanol. The flasks were inverted immediately prior to adding the compound to ensure complete mixing of the compound with the medium, before contact with the monolayer.
(§2) After 2 hours incubation at 37° C., the cells were harvested and assayed for clonogenic survival. […] All clonogenic survival results are expressed relative to the untreated controls.
(§3) Hoechst 33258, Hoechst 33342 or para dimethylamino Hoechst was added to the media of monolayers of V79 cells, to the indicated final concentrations. […] All cultures were held for a further one hour prior to plating for clonogenic survival.

V79 cells [2] = assay: Radioprotection, clonogenic survival of irradiated V79 cells; format: cell-based; conditions: for DMF: survival curves FIG. 3; for Protector plus irradiation (12 Gy), survival fraction relative to untreated control cells / Protection Factor: 12 Gy; for Protection Factor: ratio of survival fractions with and without protector
Protocol: as §1, §2
Cultures were irradiated in a 137Cs Gammacell-40 (Atomic Energy of Canada Ltd.) at a dose rate of 0.84 Gy/min. Ligand-treated cells were irradiated two hours after starting the exposure to the ligand. In all cases, the clonogenic survival was delayed until one hour after completion of irradiation.
as §3
Mono layer cultures of V79 cells were exposed to various concentrations of the three radioprotectors, as described in (a) above. After two hours, the cells were chilled and kept cold during the isolation of nuclei, using 0.08% w.v Triton X-100. After counting an aliquot of the nuclear suspension, the ligands were extracted and quantitated by spectrophotometry and the nuclear content calculated. The survival results shown in the lower part of FIG. 1 were replotted using the nuclear uptake data and the results are shown in FIG. 2.
The first three columns show survival fraction relative to that for untreated control cells. Each row represents a separate experiment and the figures are the means of duplicates. The figures in square brackets is the mean of a number of the results of a number of experiments done over the relevant period. The protection factor is the ratio of survival fractions for irradiated cells, with and without protector.
A number of bibenzimidazoles represented by formula (I) have been synthesised and assayed for radioprotective activity in cell culture. Assays were conducted using V79 fibroblasts and involved exposure of the cells to a single radiation dose (12Gy) and comparison of the clonogenic survival with and without the inclusion of the protector in the cell culture medium. The ratio of the survival fractions (with protector/without), designated the protection ratio (PR12Gy), provides a measure of the extent of radioprotection. The experimental protocol adopted was as in Example 12.

mouse lung = assay: Mouse lung model, bilateral lung irradiation; format: in vivo; conditions: maximum breathing rate up to 24 weeks, FIG. 5
Excerpt: Irradiation of mouse lung, at appropriate doses, results in fatal loss of lung function. The onset of damage is signalled by an increase in breathing rate. The dose response and kinetics of loss of lung function following irradiation of both lungs varies between different mouse strains.
The procedures for irradiation and measurement of breathing rate were essentially as described by Travis et al^3. Groups of 5-6 male DBA/2J mice were anaesthetised and irradiated with 250 kV X-rays (single dose) using a jig that shielded all the body except for both lungs. A thin midline lead strip was used to shield spinal cord between the lungs.
At weekly intervals, from 4-6 weeks post-irradiation, the breathing rate was measured for each mouse. The mouse was held in a small chamber equipped with a microphone and the output analysed on a PC. The mean breathing rate was determined for each of 3 periods of 2 seconds and the average of these readings was recorded as the breathing rate. The recorded breathing rates for each group of mice were averaged and the standard error calculated.
All mice were monitored daily for signs of respiratory distress (hunched appearance, raised hair), with particular attention being paid to those mice showing elevated breathing rate.
The radioprotector (2 mg/25 g mouse) was administered 30 minutes prior to the single irradiation dose.

[3] = test system: Chinese Hamster Ovary (CHO) fibroblasts; assay: Radioprotection survival curves of cultured CHO cells (FIG. 7, Table 5); format: cell-based; conditions: ratio of doses reducing survival to 10% of control
Excerpt: where S is the survival fraction at dose D Gy, and α and β are constants.
The fitted values of α and β were used to calculate the radiation doses (D0.1) corresponding to a survival fraction of 0.1. The ratio of the D0.1 values with and without protector, then provided the Dose Modification Factor (DMF) for each compound:
DMF=D0.1(with protector)/D0.1(without)

[4] = test system: mouse brain endothelial cells; assay: Protection of mouse brain endothelial cells; format: in vivo; conditions: 80 mg/kg i.v. 10 minutes prior to radiation, within 24 hours, FIG. 6
Protocol: Irradiation of rodent brain results in the loss of a subset of brain endothelial cells within 24 hours after irradiation.
Endothelial cell numbers were scored as described by Lyubimova et al. Each point represents the mean for 3-4 mice; 3 sections were scored for each animal, a total of 30 fields were scored for each section, and the figure indicates the average number of cells per field. The error bars indicate standard errors.

HT29 = assay: Radioprotection DMF in HT29 cells (Table 1); format: cell-based; conditions: HT29, 8.7 μM
CHO = assay: Radioprotection DMF in CHO cells (Table 1, existing radioprotector); format: cell-based; conditions: 4 mM
[5] = V79 cells, no irradiation, clonogenic survival, FIG. 1

CN1CCN(c2ccc3[nH]c(-c4ccc5[nH]c(-c6ccc(N(C)C)cc6)nc5c4)nc3c2)CC1 [Compound 1, 4Dimethylamino-1-[5′-{5′″-(4′″-methylpiperazin-1′″-yl)benzimidazol-2″-yl]benzimidazol-2′-yl}benzene]
Fields showing moist desquamation (10 weeks post-Irr.) # (pig skin; 36 Gy, 5000 μg/g): 4/7
Fields showing moist desquamation (10 weeks post-Irr.) % (pig skin; 36 Gy, 5000 μg/g): 57%
concentration up to which there is no effect on survival (V79 cells [1]; [5]): up to 100 μM
DMF (V79 cells [2]; V79, 84 μM): 1.7
Protection ratio 12Gy, Exp 8 (V79 cells [2]; V79, 12Gy 137Cs-γ, 20 μM): 5.1
Protection ratio 12Gy, Exp 8 (V79 cells [2]; V79, 12Gy 137Cs-γ, 40 μM): 7.7
Protection ratio 12Gy, Exp 8 (V79 cells [2]; V79, 12Gy 137Cs-γ, 50 μM): 8.0
radioprotective potency, survival after 12Gy in terms of nuclear content of the radioprotector (V79 cells [2]; V79 cells, 12Gy, uptake per 10^6 nuclei, FIG. 2): more potent radioprotector

CN(C)c1ccc(-c2nc3cc(-c4nc5cc(N6CCCCC6)ccc5[nH]4)ccc3[nH]2)cc1 [Compound 2, 4-Dimethylamino-1-{5′-[5″-(piperidin-1′″-yl)benzimidazol-2″-yl]benzimidazol-2′-yl}benzene]
Protector only (no irradiation), survival fraction relative to untreated control cells (V79 cells [1]; 17 μM): 0.89 and 0.81
Protector plus irradiation (12 Gy), survival fraction relative to untreated control cells (V79 cells [2]; 17 μM): 0.062 and 0.059
Protection Factor (V79 cells [2]; 17 μM): 2.8 and 2.7

Cc1cc(N(C)C)ccc1-c1nc2cc(-c3nc4cc(N5CCN(C)CC5)ccc4[nH]3)ccc2[nH]1 [Compound 5, ortho methyl para dimethylamino Hoechst]
Fields showing moist desquamation (10 weeks post-Irr.) # (pig skin; 40 Gy, 5000 μg/g): 4/8
Fields showing moist desquamation (10 weeks post-Irr.) % (pig skin; 40 Gy, 5000 μg/g): 50%
Fields showing moist desquamation (10 weeks post-Irr.) # (pig skin; 44 Gy, 5000 μg/g): 4/8
Fields showing moist desquamation (10 weeks post-Irr.) % (pig skin; 44 Gy, 5000 μg/g): 50%
Protector only (no irradiation), survival fraction relative to untreated control cells (V79 cells [1]; 20 μM): 0.71 and 0.63 and 0.88
DMF, maximum breathing rate (mouse lung): 1.4
DMF ([3]; 30 μM): 1.66
Protector plus irradiation (12 Gy), survival fraction relative to untreated control cells (V79 cells [2]; 20 μM): 0.15 and 0.145 and 0.12
Protection Factor (V79 cells [2]; 20 μM): 4.4 and 4.0 and 4.3
DMF (V79 cells [2]; V79, 30 μM): 2.1
Protection ratio 12Gy, Exp 5 (V79 cells [2]; V79, 12Gy 137Cs-γ, 30 μM): 17.4
Protection ratio 12Gy, Exp 10 (V79 cells [2]; V79, 12Gy 137Cs-γ, 30 μM): 18.7

CCOc1ccc(-c2nc3cc(-c4nc5cc(N6CCN(C)CC6)ccc5[nH]4)ccc3[nH]2)c(C)c1 [Compound 6, 4-Ethoxy-2-methyl{5′-[5″(4′″-methylpiperazin-1′″-yl)benzimidazol-2″-yl]benzimidazol-2′-yl}benzene]
Protection ratio 12Gy, Exp 3 (V79 cells [2]; V79, 12Gy 137Cs-γ, 20 μM): 8.0

CCOc1ccc(-c2nc3cc(-c4nc5cc(N6CCN(C)CC6)ccc5[nH]4)ccc3[nH]2)c(C(C)C)c1 [Compound 7, 4-Ethoxy-2i-propyl-1-{5′-[5″-(4′″-methylpiperazin-1′″-yl)benzimidazol-2′-yl]benzimidazol-2′-yl}benzene]
DMF ([3]; 20 μM): 1.42
Protection ratio 12Gy, Exp 4 (V79 cells [2]; V79, 12Gy 137Cs-γ, 20 μM): 10.8
Protection ratio 12Gy, Exp 4 (V79 cells [2]; V79, 12Gy 137Cs-γ, 30 μM): 10.4
Protection ratio 12Gy, Exp 5 (V79 cells [2]; V79, 12Gy 137Cs-γ, 30 μM): 11.3
Protection ratio 12Gy, Exp 4 (V79 cells [2]; V79, 12Gy 137Cs-γ, 40 μM): 14.2
Protection ratio 12Gy, Exp 5 (V79 cells [2]; V79, 12Gy 137Cs-γ, 40 μM): 13.2
Protection ratio 12Gy, Exp 5 (V79 cells [2]; V79, 12Gy 137Cs-γ, 50 μM): 15.2

CN1CCN(c2ccc3[nH]c(-c4ccc5[nH]c(-c6cccc(N(C)C)c6)nc5c4)nc3c2)CC1 [Compound 9, 3-N,N-Dimethylamino-1-{5′-[5″-(4′″-methylpiperazin-1′″-yl)benzimidazol-2″-yl]benzimidazol-2′-yl}benzene]
Protection ratio 12Gy, Exp 6 (V79 cells [2]; V79, 12Gy 137Cs-γ, 20 μM): 3.6
Protection ratio 12Gy, Exp 7 (V79 cells [2]; V79, 12Gy 137Cs-γ, 30 μM): 7.6
Protection ratio 12Gy, Exp 7 (V79 cells [2]; V79, 12Gy 137Cs-γ, 40 μM): 7.2
Protection ratio 12Gy, Exp 1 (V79 cells [2]; V79, 12Gy 137Cs-γ, 50 μM): 9.7
Protection ratio 12Gy, Exp 2 (V79 cells [2]; V79, 12Gy 137Cs-γ, 50 μM): 9.5
Protection ratio 12Gy, Exp 7 (V79 cells [2]; V79, 12Gy 137Cs-γ, 50 μM): 8.2

CCOc1ccc(-c2cc3ccc(-c4nc5cc(N6CCN(C)CC6)ccc5[nH]4)cc3[nH]2)cc1 [Compound 10, 4-Ethoxy-1-{6′-[5″-(4′″-methylpiperazin-1′″-yl)benzimidazol-2″-yl]indol-2′-yl}benzene]
Protection ratio 12Gy, Exp 9 (V79 cells [2]; V79, 12Gy 137Cs-γ, 20 μM): 1.5
Protection ratio 12Gy, Exp 9 (V79 cells [2]; V79, 12Gy 137Cs-γ, 40 μM): 1.4

CCOc1ccc(-c2nc3ccc(-c4nc5ccc(N6CCN(C)CC6)cc5[nH]4)cc3[nH]2)cc1 [Hoechst 33342, 4-ethoxy-1-{5′[5′″-(4′″-methylpiperazin-1′″-yl)benzimidazol-2″-yl]benzimidazol-2′-yl}benzene, reference compound]
Fields showing moist desquamation (10 weeks post-Irr.) # (pig skin; 36 Gy, 5000 μg/g): 3/7
Fields showing moist desquamation (10 weeks post-Irr.) % (pig skin; 36 Gy, 5000 μg/g): 43%
Fields showing moist desquamation (10 weeks post-Irr.) # (pig skin; 40 Gy, 500 μg/g): 4/6
Fields showing moist desquamation (10 weeks post-Irr.) % (pig skin; 40 Gy, 500 μg/g): 83%
Protector only (no irradiation), survival fraction relative to untreated control cells (V79 cells [1]; 21 μM): 0.80 and 0.87 and 0.76
concentration above which the protector becomes cytotoxic (V79 cells [1]; [5]): 20 to 30 µM
loss of endothelial cells of mouse brain after irradiation [4]: protected
DMF (HT29): 1.5
Protector plus irradiation (12 Gy), survival fraction relative to untreated control cells (V79 cells [2]; 21 μM): 0.05 and 0.06 and 0.051
Protection Factor (V79 cells [2]; 21 μM): 2.3 and 2.7
DMF (V79 cells [2]; V79, 21 μM): 1.3
Protection ratio 12Gy, Exp 1 (V79 cells [2]; V79, 12Gy 137Cs-γ, 20 μM): 7.2
Protection ratio 12Gy, Exp 4 (V79 cells [2]; V79, 12Gy 137Cs-γ, 20 μM): 11.8
Protection ratio 12Gy, Exp 9 (V79 cells [2]; V79, 12Gy 137Cs-γ, 20 μM): 7.1

NCCCNCCS [WR1065]
DMF (CHO): 1.9

CN1CCN(c2ccc3[nH]c(-c4ccc5[nH]c(-c6ccc([N+](=O)[O-])cc6)nc5c4)nc3c2)CC1 [para nitro Hoechst, reference compound]
Protector only (no irradiation), survival fraction relative to untreated control cells (V79 cells [1]; 20 μM): 0.89
Protector plus irradiation (12 Gy), survival fraction relative to untreated control cells (V79 cells [2]; 20 μM): 0.011
Protection Factor (V79 cells [2]; 20 μM): [0.5]*
